Assay results from US8585965B2, “Sterilization of polymeric materials” (priority 2006, dated 2013).

Legend:
Type in all cases: cell-based
[1] = system: Enterococcus faecalis ATCC 29212; assay: Radiosensitization of bacteria coated onto a material surface (sterile 12 mm paper disks), gamma irradiation, cfu by dilution plating; conditions: for enhancement of the killing efficiency of the irradiation / cfu recovered, 0.3 kGy: 0.3 kGy; for enhancement of the killing efficiency of the irradiation: paper disks; for Post-Treatment CFU Added: 2 hours at room temperature; for cfu recovered, 0.3 kGy / cfu recovered, 0 kGy: paper disk; for cfu recovered, 0 kGy: not irradiated
Protocol: Enterococcus faecalis ATCC 29212, grown overnight in tryptic soy broth at 37° C. without shaking, were centrifuged and resuspended in 2% glucose at a concentration of about 5×10^7 cfu/ml. […] The cfu contained in each sample were quantified by dilution plating and the values are listed as “post-treatment cfu added.” None of the radiosensitizer treatments alone appeared to have a significant adverse effect on the bacteria.
Following radiosensitizer treatment, 0.05 ml of each mixture (containing approximately 1×10^6 cfu) was spotted onto sterile 12 mm paper disks and the disks air dried for 30 minutes. The disks were then placed in sterile tubes and left untreated or irradiated with 0.3 kGy. The cfu were recovered from the disks by vortexing with glass beads for 1 minute in 0.85% saline with 0.35 g/l lecithin and 2.5 ml/l Tween 80. Quantification of the cfu was then performed by dilution plating onto tryptic soy agar.

[2] = system: Enterococcus faecalis ATCC 29212; assay: Radiosensitization of bacteria coated onto Spongostan gelatin sponge (Example 4); conditions: 50 μg/ml methylene blue
Protocol: (§1) Enterococcus faecalis ATCC 29212, grown overnight in tryptic soy broth at 37° C. without shaking, were centrifuged and resuspended in phosphate buffered saline (PBS) at a concentration of about 5×10^8 cfu/ml. […] The cfu contained in each sample after this incubation were quantified by dilution plating.
Following radiosensitizer treatment, 0.01 ml of each mixture (containing approximately 5×10^8 cfu) was spotted onto nine 1 cm×1 cm squares of Spongostan® gelatin sponge that were then air dried for 60 minutes. (Spongostan® is a dry artificial sponge of fibrin prepared by clotting with thrombin, a foam or solution of fibrinogen. It is used in conjunction with thrombin as a hemostatic in surgery at sites where bleeding cannot be controlled by more common methods.) Triplicate samples were then placed in sterile tubes and left untreated or irradiated with 0.1 or 0.3 kGy. The cfu were recovered from the sponge by vortexing with glass beads for 1 minute in 0.85% saline with 0.35 g/l lecithin and 2.5 ml/l Tween 80. Quantification of the cfu was then performed by dilution plating onto tryptic soy agar.

[3] = system: Enterococcus faecalis ATCC 29212; assay: Radiosensitization of bacteria coated onto Vicryl mesh (Example 3); conditions: for Avg CFU Recovered / Log Red v 0 kGy / Log Red v Control / Log Red v Inoculum: 50 μg/ml, Vicryl
Protocol: as §1
Following radiosensitizer treatment, 0.01 ml of each mixture (containing approximately 5×10^8 cfu) was spotted onto nine 1 cm×1 cm squares of Vicryl® mesh that were then air dried for 60 minutes. Triplicate samples were then placed in sterile tubes and left untreated or irradiated with 0.1 or 0.3 kGy. The cfu were recovered from the mesh by vortexing with glass beads for 1 minute in 0.85% saline with 0.35 g/l lecithin and 2.5 ml/l Tween 80. Quantification of the cfu was then performed by dilution plating onto tryptic soy agar.

[4] = system: Enterococcus faecalis ATCC 29212; assay: Radiosensitization of bacteria coated onto Prolene mesh (Example 3)
Protocol: as §1
Following radiosensitizer treatment, 0.01 ml of each mixture (containing approximately 5×10^8 cfu) was spotted onto nine 1 cm×1 cm squares of Prolene® mesh that were then air dried for 60 minutes. Triplicate samples were then placed in sterile tubes and left untreated or irradiated with 0.1 or 0.3 kGy. The cfu were recovered from the mesh by vortexing with glass beads for 1 minute in 0.85% saline with 0.35 g/l lecithin and 2.5 ml/l Tween 80. Quantification of the cfu was then performed by dilution plating onto tryptic soy agar.

[5] = system: Enterococcus faecalis ATCC 29212; assay: Radiosensitization of bacteria coated onto Vicryl mesh (Example 2), irradiation 0.1 or 0.2 kGy; parameters: Inoculum: dose or concentration left out as unconfirmed
Protocol: Enterococcus faecalis ATCC 29212, grown overnight in tryptic soy broth at 37° C. without shaking, were centrifuged and resuspended in phosphate buffered saline (PBS) at a concentration of roughly 2×10^9 cfu/ml. […] The cfu contained in each sample after this incubation were quantified by dilution plating.
Following radiosensitizer treatment, 0.01 ml of each mixture (containing approximately 2×10^7 cfu) was spotted onto nine 1 cm×1 cm squares of Vicryl® mesh that were then air dried for 60 minutes. Triplicate samples were then placed in sterile tubes and left untreated or irradiated with 0.1 or 0.2 kGy. The cfu were recovered from the meshes by vortexing with glass beads for 1 minute in 0.85% saline with 0.35 g/l lecithin and 2.5 ml/l Tween 80. Quantification of the cfu was then performed by dilution plating onto tryptic soy agar.

[6] = 50 μg/ml methylene blue, 2 hours, no irradiation
[7] = 50 μg/ml, 0.3 kGy, Prolene, triplicate samples

With `O=C1O[C@H]([C@@H](O)CO)C(O)=C1O` [Ascorbic Acid, ascorbic acid] the “enhancement of the killing efficiency of the irradiation” value (“enhancement” for short) [1] was “greatest effect”, the “Percent Survival 0.3 vs. 0 kGy” value ([1]; Conc. 200 μg/ml) was 0.28% and the “Post-Treatment CFU Added” value ([1]; Conc. 200 μg/ml) was 8.55E+05 CFU. The “cfu recovered, 0.3 kGy” value ([1]; Conc. 200 μg/ml) was 9 cfu and the “cfu recovered, 0 kGy” value ([1]; Conc. 200 μg/ml) was 3270 cfu.
In the case of `CN(C)c1ccc2nc3ccc(=[N+](C)C)cc-3sc2c1` [Methylene Blue, methylene blue], the “cfu contained in sample after incubation” value ([2]; 2 hours at room temperature, PBS, untreated 4.8×10^8) is reported as 4.2×10^8 cfu/ml, the “effect of incubation on the bacterial number” value (from here on “effect of incubation”) ([2]; 2 hours, no irradiation) is reported as “did not significantly affect the bacterial number” and the Inoculum ([3]; 50 μg/ml methylene blue, spotted onto Vicryl mesh) is reported as 4.20E+06 CFU. For the same molecule, the “Avg CFU Recovered” value ([3]; 0.0 kGy) was 1.79E+04 CFU, the “Log Red v 0 kGy” value ([3]; 0.0 kGy) was 0.0 Log and the “Log Red v Control” value ([3]; 0.0 kGy) was −1.2 Log. The “Log Red v Inoculum” value ([3]; 0.0 kGy) was −2.4 Log, the “Avg CFU Recovered” value ([3]; 0.3 kGy) was 9.83E+01 CFU and the “Log Red v 0 kGy” value ([3]; 0.3 kGy) was −2.3 Log. For the same molecule, the “Log Red v Control” value ([3]; 0.3 kGy) was −0.8 Log, the “Log Red v Inoculum” value ([3]; 0.3 kGy) was −4.6 Log and the “number of bacteria recovered, combination with irradiation compared to methylene blue or irradiation alone” value ([3]; Vicryl mesh) was “significantly reduced the number of bacteria recovered”. For the same molecule, the “cfu contained in sample after incubation” value ([4]; 50 μg/ml methylene blue, 2 hours at room temperature, PBS, suspension used for Prolene and Vicryl meshes, untreated 4.8×10^8) was 4.2×10^8 cfu/ml, the “effect of incubation” value [4, 6] was “did not significantly affect the bacterial number” and the Inoculum ([4]; 50 μg/ml methylene blue, spotted onto Prolene mesh) was 4.20E+06 CFU. The “Avg CFU Recovered” value ([4]; 50 μg/ml, 0.0 kGy, Prolene) was 2.38E+03 CFU, the “Log Red v 0 kGy” value ([4]; 50 μg/ml, 0.0 kGy, Prolene) was 0.0 Log and the “Log Red v Control” value ([4]; 50 μg/ml, 0.0 kGy, Prolene) was −1.5 Log. The “Log Red v Inoculum” value ([4]; 50 μg/ml, 0.0 kGy, Prolene) was −3.2 Log, the “Avg CFU Recovered” value ([4]; 50 μg/ml, 0.3 kGy, Prolene) was 0.00E+00 CFU and the “Log Red v 0 kGy” value ([4]; 50 μg/ml, 0.3 kGy, Prolene) was −3.4 Log. For the same molecule, the “Log Red v Control” value ([4]; 50 μg/ml, 0.3 kGy, Prolene) was −1.2 Log, the “Log Red v Inoculum” value ([4]; 50 μg/ml, 0.3 kGy, Prolene) was −6.6 Log and the “Plated CFU” value [4, 7] was 0.00E+00 CFU. The “Total CFU Recovered” value [4, 7] was 0.00E+00 CFU, the “number of bacteria recovered, combination with irradiation compared to methylene blue or irradiation alone” value ([4]; Prolene mesh) was “significantly reduced the number of bacteria recovered” and the “Percent Survival 0.3 vs. 0 kGy” value ([1]; Conc. 20 μg/ml) was 0.13%. For the same molecule, the “Post-Treatment CFU Added” value ([1]; Conc. 20 μg/ml) was 7.80E+05 CFU, the “cfu recovered, 0.3 kGy” value ([1]; Conc. 20 μg/ml) was 3 cfu and the “cfu recovered, 0 kGy” value ([1]; Conc. 20 μg/ml) was 2250 cfu. The “Avg CFU Rec” value ([5]; 0 kGy, Vicryl mesh) was 7.40E+05 CFU, the “Avg Log CFU” value ([5]; 0 kGy, Vicryl mesh) was 5.72 Log CFU and the “cfu contained in sample after incubation” value ([5]; 50 μg/ml methylene blue, 2 hours at room temperature, PBS, untreated 1.8×10^9) was 1.6×10^9 cfu/ml. For the same molecule, the “effect of incubation” value [5, 6] was “did not significantly affect the bacterial number”, the “Avg Log CFU” value ([5]; 0.1 kGy, Vicryl mesh) was 3.90 Log CFU and the “Avg CFU Rec” value ([5]; 0.2 kGy, Vicryl mesh) was 1.83E+03 CFU. The “Avg Log CFU” value ([5]; 0.2 kGy, Vicryl mesh) was 3.08 Log CFU, the “effect on bacterial recovery” value ([5]; methylene blue, Vicryl mesh) was “small effect on bacterial recovery” and the “recovery from unirradiated sample” value ([5]; methylene blue-treated, 0 kGy, Vicryl mesh, control 15%) was 4.6%. For the same molecule, the Inoculum ([5]; spotted onto Vicryl mesh) was 1.60E+07 CFU.
For `Cc1cc2nc3c(=O)[nH]c(=O)nc-3n(C[C@H](O)[C@H](O)[C@H](O)CO)c2cc1C` [Riboflavin, riboflavin], the “Percent Survival 0.3 vs. 0 kGy” value ([1]; Conc. 200 μg/ml) was 0.28%, the “Post-Treatment CFU Added” value ([1]; Conc. 200 μg/ml) was 8.50E+05 CFU and the “cfu recovered, 0.3 kGy” value ([1]; Conc. 200 μg/ml) was 3 cfu. For the same molecule, the “cfu recovered, 0 kGy” value ([1]; Conc. 200 μg/ml) was 1080 cfu, the “Percent Survival 0.3 vs. 0 kGy” value ([1]; Conc. 1000 μg/ml) was 0.83% and the “Post-Treatment CFU Added” value ([1]; Conc. 1000 μg/ml) was 8.00E+05 CFU. The “cfu recovered, 0.3 kGy” value ([1]; Conc. 1000 μg/ml) was 9 cfu and the “cfu recovered, 0 kGy” value ([1]; Conc. 1000 μg/ml) was 1080 cfu.
With `O=[N+]([O-])[O-].[Na+]` [Sodium Nitrate, sodium nitrate] the “enhancement” value [1] was “greatest effect”, the “Percent Survival 0.3 vs. 0 kGy” value ([1]; Conc. 5000 μg/ml) was 0.00% and the “Post-Treatment CFU Added” value ([1]; Conc. 5000 μg/ml) was 8.15E+05 CFU. The “cfu recovered, 0.3 kGy” value ([1]; Conc. 5000 μg/ml) was 0 cfu and the “cfu recovered, 0 kGy” value ([1]; Conc. 5000 μg/ml) was 420 cfu.
In the case of `Cc1cc2nc3ccc(N(C)C)cc3[s+]c2cc1N.[Cl-]` [Toluidine Blue, toluidine blue], the “enhancement” value [1] is reported as “greatest effect”, the “Percent Survival 0.3 vs. 0 kGy” value ([1]; Conc. 20 μg/ml) is reported as 0.00% and the “Post-Treatment CFU Added” value ([1]; Conc. 20 μg/ml) is reported as 7.70E+05 CFU. For the same molecule, the “cfu recovered, 0.3 kGy” value ([1]; Conc. 20 μg/ml) was 0 cfu, the “cfu recovered, 0 kGy” value ([1]; Conc. 20 μg/ml) was 87 cfu and the “Percent Survival 0.3 vs. 0 kGy” value ([1]; Conc. 100 μg/ml) was 0.00%. For the same molecule, the “Post-Treatment CFU Added” value ([1]; Conc. 100 μg/ml) was 4.65E+05 CFU, the “cfu recovered, 0.3 kGy” value ([1]; Conc. 100 μg/ml) was 0 cfu and the “cfu recovered, 0 kGy” value ([1]; Conc. 100 μg/ml) was 72 cfu.
